Measured values as given in PMC7822874, “Chemoprotective antimalarials identified through quantitative high-throughput screening of Plasmodium blood and liver stage parasites” (Scientific Reports, 2021).
Several values for one entry are separate records, joined by “and”; a condition that tells them apart may be missing. Identical values can stand only once.

What was measured:
[1] = tested on: T1, Plasmodium falciparum Dd2-attB (parental line), asexual blood stages; assay: microbe, parasite or virus in culture; design: replicate k of 3 (each line is one of three independent assays; the three lines of one compound and parasite line follow each other); conditions: n = 1; for Individual replicates / Log AC50 (M): 72 h; for AC50: Plasmodium falciparum, DD2, 72 h, read-out: Individual replicates / Log AC50 (converted)
T1 construct: Dd2-attB, the isogenic parental line
Procedure, shortened: (§1)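 Only some compounds were profiled here. Each was assayed three independent times against the Dd2-attB parent and its yeast-DHODH-overexpressing derivative.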

[2] = tested on: T2, Plasmodium falciparum Dd2-attB-ScDHODH (transgenic line expressing yeast DHODH), asexual blood stages; assay: organism not typed; design: replicate k of 3 (each line is one of three independent assays; the three lines of one compound and parasite line follow each other)
T2 construct: Dd2-attB-ScDHODH, the transgenic line that expresses yeast DHODH
Procedure, shortened: as §1

[3] = 72 h; n = 1; read-out: Individual replicates / Log AC50 (converted)

Row | Compound | Individual replicates / Log AC50 (M) [1] | AC50 [1] [µM] | Individual replicates / Log AC50 (M) ([2]; 72 h; n = 1) | AC50 [2, 3] [µM] | Individual replicates / Log AC50 (M) ([2]; 72 h, n = 1)
1 | Cc1ccccc1C(OCCN1CCCCC1)c1cc2nccc(B(O)O)c2s1 (centres unmarked) [NCGC00481524-01] | -4.8486 Log AC50 (M) and -4.7986 Log AC50 (M) | 14.2 | -4.7986 Log AC50 (M) | 15.9 | –
2 | CCO/C=C(\C#N)C(=O)N1CCCN(c2cc(NCCC(=O)OC)nc(-c3ccccn3)n2)CC1 [NCGC00420783-01] | -5.0986 Log AC50 (M) and -5.0486 Log AC50 (M) | 8.94 | – | 10 | -5.0486 Log AC50 (M) and -4.8986 Log AC50 (M)
3 | O=C(NCCCN1CCCCCC1)c1cccc(-c2cc(O)c3ncccc3c2)c1 [NCGC00247760-01] | -4.8986 Log AC50 (M) and -4.7486 Log AC50 (M) | 20 | – | 15.9 | –
4 | Oc1ccc(CNCc2ccccc2F)c2cccnc12 [NCGC00184908-01] | -5.3986 Log AC50 (M) and -5.0486 Log AC50 (M) and -5.1986 Log AC50 (M) | – | – | – | -4.7486 Log AC50 (M) and -5.1486 Log AC50 (M) (2×)
5 | Oc1ccc(CCc2ccccc2)c2cccnc12 [NCGC00184902-01] | -5.2486 Log AC50 (M) | 7.1 | – | 7.1 | -4.8486 Log AC50 (M) and -5.1486 Log AC50 (M)
6 | CCCN1CCCc2cc(CN(CCCN3CCOCC3)C(=O)Nc3ccc(Cl)c(Cl)c3)ccc21 [NCGC00140597-02] | -5.3486 Log AC50 (M) and -5.2986 Log AC50 (M) | 3.99 | – | 3.99 | -5.3986 Log AC50 (M) and -5.0986 Log AC50 (M)
7 | CN(C)c1cnc2c(O)ccc(C(=O)O)c2c1 [NCGC00189499-01] | -4.7486 Log AC50 (M) | 14.2 | – | 14.2 | -4.9486 Log AC50 (M)
8 | Oc1ccc(/C=C/c2ccccc2F)c2cccnc12 [NCGC00184903-01] | -5.2486 Log AC50 (M) and -5.1486 Log AC50 (M) | 6.33 | – | 6.33 | -4.9986 Log AC50 (M) and -5.1986 Log AC50 (M)
9 | O=C(O)c1ccc(O)c2ncc(-c3ccc(N4CCOCC4)cc3)cc12 [NCGC00241754-01] | -4.7986 Log AC50 (M) | 15.9 | – | 14.2 | –
10 | Oc1ccc(CNc2ccc(F)cc2Cl)c2cccnc12 [NCGC00184893-01] | -4.7986 Log AC50 (M) and -4.8486 Log AC50 (M) | 15.9 | – | 14.2 | -4.7986 Log AC50 (M)
11 | O=C(NCCCc1ccccc1)c1cccc(-c2cc(O)c3ncccc3c2)c1 [NCGC00244536-01] | -5.2486 Log AC50 (M) and -5.1986 Log AC50 (M) | 7.1 | – | – | -4.8986 Log AC50 (M)
12 | Oc1ccc(COCc2ccc(F)cc2)c2cccnc12 [NCGC00183381-01] | -4.7986 Log AC50 (M) | 17.8 | – | 15.9 | -4.7486 Log AC50 (M) and -4.7986 Log AC50 (M)
13 | CC1CN(c2cnc3c(O)ccc(C(=O)O)c3c2)CCN1Cc1ccccc1 (centres unmarked) [NCGC00249383-01] | -4.7486 Log AC50 (M) and -4.8486 Log AC50 (M) | 17.8 | – | 17.8 | -4.7986 Log AC50 (M)
14 | CC1(C)OB(c2ccc(O)c3ncc(N4CCNCC4)cc23)OC1(C)C [NCGC00241053-01] | -4.8986 Log AC50 (M) and -5.0486 Log AC50 (M) | 8.94 | – | 7.1 | -5.0486 Log AC50 (M) and -4.9986 Log AC50 (M)
15 | O=C(O)c1ccc(O)c2ncc(N3CCOCC3)cc12 [NCGC00241036-02] | – | 14.2 | – | 10 | –
16 | Oc1ccc(-c2ccccc2F)c2cccnc12 [NCGC00184901-01] | -4.8486 Log AC50 (M) and -4.8986 Log AC50 (M) | 15.9 | – | 14.2 | -4.8486 Log AC50 (M) and -4.7986 Log AC50 (M)

Row | Compound | Individual replicates / Log AC50 (M) [1] | AC50 [1] [µM] | Individual replicates / Log AC50 (M) ([2]; 72 h; n = 1) | AC50 [2, 3] [µM] | Individual replicates / Log AC50 (M) ([2]; 72 h, n = 1)
17 | Cc1cc(C)nc(NCc2ccc(O)c3ncccc23)c1 [NCGC00241026-01] | -4.7986 Log AC50 (M) | 17.8 | – | 20 | -4.8986 Log AC50 (M)
18 | O=C(Nc1ccccc1F)c1ccc(Cn2nc(N3CCN(c4ccccc4)CC3)ccc2=O)o1 [NCGC00127944-02] | -5.1486 Log AC50 (M) and -5.0986 Log AC50 (M) | 7.97 | – | 8.94 | -5.0986 Log AC50 (M) and -5.0486 Log AC50 (M)
19 | C=CC(=O)Nc1cccc(C(OCCN2CCCCC2)c2cc3nccc(C(=O)OC(C)C)c3s2)c1 (centres unmarked) [NCGC00493267-01] | -5.1486 Log AC50 (M) and -5.0486 Log AC50 (M) | 8.94 | – | 7.97 | -5.0486 Log AC50 (M) and -4.7986 Log AC50 (M)
20 | Cc1nnc2c3ccccc3nc(N3CCN(c4ccccc4)CC3)n12 [NCGC00107295-01] | -4.7986 Log AC50 (M) | 15.9 | – | 14.2 | –
21 | COC(=O)c1ccnc2cc(C(OCCC3CCCN3C)c3ccccc3Cl)sc12 (centres unmarked) [NCGC00481040-01] | -5.0986 Log AC50 (M) and -4.9486 Log AC50 (M) | 8.94 | – | 12.6 | -4.8486 Log AC50 (M)
22 | CN1CCN(C(=O)c2ccc(-c3cnc4c(O)ccc(C(=O)O)c4c3)cc2)CC1 [NCGC00189504-01] | -4.7986 Log AC50 (M) | 17.8 | – | 15.9 | -4.7486 Log AC50 (M)
23 | O=C(O)c1ccnc2cc(C(OCCCN3CCCCC3)c3ccccc3Cl)[nH]c12 (centres unmarked) [NCGC00421948-01] | -4.9486 Log AC50 (M) | 7.97 | – | 5.03 | –
24 | CN(C)C(=O)c1cccc(-c2cc(O)c3ncccc3c2)c1 [NCGC00244525-01] | -5.2486 Log AC50 (M) and -5.1486 Log AC50 (M) | 7.1 | – | 6.33 | -5.1986 Log AC50 (M) and -5.0986 Log AC50 (M)
25 | O=C(NCCC12CCCN1CCC2)c1cccc(-c2cc(O)c3ncccc3c2)c1 [NCGC00249386-01] | -4.7986 Log AC50 (M) | 17.8 | – | 17.8 | -4.6986 Log AC50 (M)
26 | O=C(CCc1ccccc1)NC(c1cccs1)c1cc(Cl)c2cccnc2c1O (centres unmarked) [MLS000703748-02] | -5.4486 Log AC50 (M) | 3.99 | -5.3986 Log AC50 (M) | 3.99 | –
27 | CN(C)CC1CCCN(C2CCN(C(=O)c3cccc(-c4cc(O)c5ncccc5c4)c3)CC2)C1 (centres unmarked) [NCGC00247737-01] | -5.3986 Log AC50 (M) and -5.3486 Log AC50 (M) | 5.64 | – | 6.33 | -5.4486 Log AC50 (M)
28 | c1ccc(CCn2nc(-c3cnccn3)nc2CCCN2CCCCC2)cc1 [NCGC00390064-01] | -4.9986 Log AC50 (M) and -5.1486 Log AC50 (M) and -4.8486 Log AC50 (M) | – | – | – | -4.7986 Log AC50 (M) and -5.0986 Log AC50 (M) and -4.7486 Log AC50 (M)
29 | Cc1ccc(C(CCN2CCCCC2)c2cc3cccc(C(N)=O)c3[nH]2)cc1 (centres unmarked) [NCGC00389183-01] | -5.2486 Log AC50 (M) | 5.03 | – | 5.03 | -5.3486 Log AC50 (M) and -5.0986 Log AC50 (M)
30 | Oc1ccc(CNc2cccc(C(F)(F)F)c2)c2cccnc12 [NCGC00177833-02] | – | 17.8 | – | 15.9 | -4.7486 Log AC50 (M)
31 | CN(C)CC1CCN(C2CCN(C(=O)c3cccc(-c4cc(O)c5ncccc5c4)c3)CC2)CC1 [NCGC00247736-01] | -5.3486 Log AC50 (M) and -4.8486 Log AC50 (M) and -5.1486 Log AC50 (M) | – | – | – | -4.7986 Log AC50 (M) and -5.0486 Log AC50 (M)
32 | CCOC(=O)c1ccc(O)c2ncc(-c3ccc(C(=N)N)cc3)cc12 [NCGC00241050-01] | – | 17.8 | -4.6986 Log AC50 (M) | 20 | –
